From patent publication US20200077658A1, “Pesticidal Compounds” (BASF SE, priority 2016, published 2020)

What was measured:
Type in all cases: in vivo
[1] = tested on: Diamond Back Moth (Plutella xylostella); experiment: Action on diamond back moth (Plutella xylostella), cabbage leaf dip; details: foliar, 3rd instar larvae on dipped cabbage leaves, 72 hours after treatment, read-out: mortality in comparison with untreated controls
Method: The active compound is dissolved at the desired concentration in a mixture of 1:1 (vol:vol) distilled water:acetone. Surfactant (Kinetic® HV) is added at a rate of 0.01% (vol/vol).The test solution is prepared at the day of use.
Leaves of cabbage were dipped in test solution and air-dried. Treated leaves were placed in petri dishes lined with moist filter paper and inoculated with ten 3rd instar larvae. Mortality was recorded 72 hours after treatment. Feeding damages were also recorded using a scale of 0-100%.

[2] = tested on: Southern Armyworm (Spodoptera eridania), 2nd Instar Larvae; experiment: Action on southern armyworm (Spodoptera eridania), 2nd instar larvae, sprayed lima bean plants; details: 96 h, 2nd instar larvae on lima bean, 4 days after treatment, read-out: mortality in comparison with untreated controls
Method: The active compounds were formulated by a Tecan liquid handler in 100% cyclohexanone as a 10,000 ppm solution supplied in tubes. The 10,000 ppm solution was serially diluted in 100% cyclohexanone to make interim solutions. These served as stock solutions for which final dilutions were made by the Tecan in 50% acetone:50% water (v/v) into 10 or 20 ml glass vials. A nonionic surfactant (Kinetic®) was included in the solution at a volume of 0.01% (v/v). The vials were then inserted into an automated electrostatic sprayer equipped with an atomizing nozzle for application to plants/insects.
Lima bean plants (variety Sieva) were grown 2 plants to a pot and selected for treatment at the 1st true leaf stage. Test solutions were sprayed onto the foliage by an automated electrostatic plant sprayer equipped with an atomizing spray nozzle. The plants were dried in the sprayer fume hood and then removed from the sprayer. Each pot was placed into perforated plastic bags with a zip closure. About 10 to 11 armyworm larvae were placed into the bag and the bags zipped closed. Test plants were maintained in a growth room at about 250C and about 20-40% relative humidity for 4 days, avoiding direct exposure to fluorescent light (24 hour photoperiod) to prevent trapping of heat inside the bags. Mortality and reduced feeding were assessed 4 days after treatment, compared to untreated control plants.

[3] = tested on: yellow fever mosquito (Aedes aegypti); experiment: whole plant or invertebrate; details: 48 h, larval mortality visually assessed after 2 days, read-out: mortality in comparison with untreated controls
Method: For evaluating control of yellow fever mosquito (Aedes aegypti) the test unit consisted of 96-well-microtiter plates containing 200 μl of tap water per well and 5-15 freshly hatched A. aegypti larvae.
The active compounds were formulated using a solution containing 75% (v/v) water and 25% (v/v) DMSO. Different concentrations of formulated compounds or mixtures were sprayed onto the insect diet at 2.5 μl, using a custom built micro atomizer, at two replications.
After application, microtiter plates were incubated at 28±1° C., 80±5% RH for 2 days. Larval mortality was then visually assessed.

[4] = tested on: tobacco budworm (Heliothis virescens); experiment: Action on tobacco budworm (Heliothis virescens), 96-well microtiter plate diet test; details: 120 h, egg and larval mortality after 5 days, read-out: mortality in comparison with untreated controls
Method: For evaluating control of tobacco budworm (Helliothis virescens) the test unit consisted of 96-well-microtiter plates containing an insect diet and 15-25 H. virescens eggs.
The compounds were formulated using a solution containing 75% v/v water and 25% v/v DMSO. Different concentrations of formulated compounds were sprayed onto the insect diet at 10 μl, using a custom built micro atomizer, at two replications.
After application, microtiter plates were incubated at about 28±1° C. and about 80±5% relative humidity for 5 days. Egg and larval mortality was then visually assessed.

[5] = tested on: Silverleaf Whitefly (Bemisia argentifoli) (Adults); experiment: Action on silverleaf whitefly (Bemisia argentifoli) adults, sprayed cotton plants; details: Bemisia argentifolii, 72 h, 3 days after treatment, read-out: mortality in comparison with untreated controls
Method: The active compounds were formulated by a Tecan liquid handler in 100% cyclohexanone as a 10,000 ppm solution supplied in tubes. The 10,000 ppm solution was serially diluted in 100% cyclohexanone to make interim solutions. These served as stock solutions for which final dilutions were made by the Tecan in 50% acetone:50% water (v/v) into 5 or 10 ml glass vials. A nonionic surfactant (Kinetic®) was included in the solution at a volume of 0.01% (v/v). The vials were then inserted into an automated electrostatic sprayer equipped with an atomizing nozzle for application to plants/insects.
Cotton plants at the cotyledon stage (one plant per pot) were sprayed by an automated electrostatic plant sprayer equipped with an atomizing spray nozzle. The plants were dried in the sprayer fume hood and then removed from the sprayer. Each pot was placed into a plastic cup and about 10 to 12 whitefly adults (approximately 3-5 days old) were introduced. The insects were collected using an aspirator and a nontoxic Tygon® tubing connected to a barrier pipette tip. The tip, containing the collected insects, was then gently inserted into the soil containing the treated plant, allowing insects to crawl out of the tip to reach the foliage for feeding. Cups were covered with a reusable screened lid. Test plants were maintained in a growth room at about […] and about 20-40% relative humidity for 3 days, avoiding direct exposure to fluorescent light (24 hour photoperiod) to prevent trapping of heat inside the cup. Mortality was assessed 3 days after treatment, compared to untreated control plants.

[6] = tested on: Orchid thrips (Dichromothrips corbetti); experiment: Action on orchid thrips (Dichromothrips corbetti), floral-immersion technique; details: adult thrips, mortality 72 hours after treatment, read-out: mortality in comparison with untreated controls
Method: Dichromothrips corbetti adults used for bioassay were obtained from a colony maintained continuously under laboratory conditions. For testing purposes, the test compound is diluted in a 1:1 mixture of acetone:water (vol:vol), plus Kinetic® HV at a rate of 0.01% v/v.
Thrips potency of each compound was evaluated by using a floral-immersion technique. All petals of individual, intact orchid flowers were dipped into treatment solution and allowed to dry in Petri dishes. Treated petals were placed into individual re-sealable plastic along with about 20 adult thrips. All test arenas were held under continuous light and a temperature of about 28° C. for duration of the assay. After 3 days, the numbers of live thrips were counted on each petal. The percent mortality was recorded 72 hours after treatment.

[7] = tested on: boll weevil (Anthonomus grandis); experiment: Action on boll weevil (Anthonomus grandis), 96-well microtiter plate diet test; details: 120 h, egg and larval mortality after 5 days, read-out: mortality in comparison with untreated controls
Method: For evaluating control of boll weevil (Anthonomus grandis) the test unit consisted of 96-well-microtiter plates containing an insect diet and 5-10 A. grandis eggs.
The compounds were formulated using a solution containing 75% v/v water and 25% v/v DMSO. Different concentrations of formulated compounds were sprayed onto the insect diet at 5 μl, using a custom built micro atomizer, at two replications.
After application, microtiter plates were incubated at about 25±1° C. and about 75±5% relative humidity for 5 days. Egg and larval mortality was then visually assessed.

CC(/C=N/NC(=S)Nc1ccccc1C(C)C)=C\c1cnc(N(C)c2ccc(OC(F)(F)F)cc2)nc1C [Compound C-16, 1-(2-isopropylphenyl)-3-[(E)-[(E)-2-methyl-3-[4-methyl-2-[N-methyl-4-(trifluoromethoxy)anilino]pyrimidin-5-yl]prop-2-enylidene]amino]thiourea]
≥ 75%: mortality at 500 ppm [1] | mortality at 300 ppm [2] | mortality at 800 ppm [3] | mortality at 800 ppm [4] | mortality at 300 ppm [5] | mortality at 500 ppm [6] | mortality at 800 ppm [7]

CC(/C=N/N=C1\SCC(=O)N1c1ccccc1C(C)C)=C\c1cnc(N(C)c2ccc(OC(F)(F)F)cc2)nc1C [Compound C-17, (2Z)-3-(2-isopropylphenyl)-2-[(E)-[(E)-2-methyl-3-[4-methyl-2-[N-methyl-4-(trifluoromethoxy)anilino]pyrimidin-5-yl]prop-2-enylidene]hydrazono]thiazolidin-4-one]
≥ 75%: mortality at 500 ppm [1] | mortality at 300 ppm [2] | mortality at 800 ppm [3] | mortality at 800 ppm [4] | mortality at 300 ppm [5] | mortality at 500 ppm [6] | mortality at 800 ppm [7]

CO[C@@H]1[C@@H](OC)[C@@H](OC)C(O/N=C/C(C)=C/c2cnc(N(C)c3ccc(OC(F)(F)F)cc3)nc2)O[C@H]1C (stereo partly drawn) [Compound C-23, N-methyl-5-[(E,3E)-2-methyl-3-[(3R,4R,5S,6S)-3,4,5-trimethoxy-6-methyl-tetrahydropyran-2-yl]oxyimino-prop-1-enyl]-N-[4-(trifluoromethoxy)phenyl]pyrimidin-2-amine]
≥ 75%: mortality at 500 ppm [1] | mortality at 300 ppm [2] | mortality at 800 ppm [3] | mortality at 800 ppm [4] | mortality at 300 ppm [5] | mortality at 500 ppm [6] | mortality at 800 ppm [7]
